Results published in US5616563A, “Glutathione N-hydroxycarbamoyl thioesters and method of inhibiting neoplastic growth” (University of Maryland Baltimore Campus, priority 1994, dated 1997).
Where two headings read alike, the source gives them in different places.

How the values were obtained:
human erythrocyte Glx I = target: T1, human erythrocyte Glx I (Homo sapiens, UniProt Q04760); assay: Inhibition of human erythrocyte glyoxalase I; type: biochemical
T1 construct: Human erythrocyte Glx I was purified to homogeneity from out-dated human blood; from tissue; host or cells: human erythrocytes (out-dated human blood)
T1 sequence (Q04760 2-184 limits assumed): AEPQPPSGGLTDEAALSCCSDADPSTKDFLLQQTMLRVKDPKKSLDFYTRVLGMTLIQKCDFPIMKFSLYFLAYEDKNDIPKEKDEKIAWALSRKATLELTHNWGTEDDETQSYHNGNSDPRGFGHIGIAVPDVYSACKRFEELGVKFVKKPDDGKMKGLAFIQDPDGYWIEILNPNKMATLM

[1] = test system: Human Leukemia 60 (HL60) cells; assay: Growth inhibition and kill of human leukemia 60 cells; type: cell-based
Protocol: The observation that compounds 2 and 6(c) inhibit tumor cell growth, but were not strongly cytotoxic to tumor cells at the concentrations tested, prompted the synthesis of diethyl esters of compounds 6(a), 6(b), and 6(c). These derivatives were then tested with human leukemia cells (HL60 cells) grown in RPMI/fetal calf serum medium at 37° C.
^c Concentration for 50% cell kill.

[2] = test system: normal human VA-2 fibroblasts; assay: Toxicity to normal human fibroblasts; type: cell-based
yeast Glx I [3] = target: T2, yeast Glx I (Saccharomyces cerevisiae, UniProt P50107); assay: Inhibition of yeast glyoxalase I; type: biochemical
T2 construct: purchased Sigma Chem. Co
T2 sequence (P50107 1-326): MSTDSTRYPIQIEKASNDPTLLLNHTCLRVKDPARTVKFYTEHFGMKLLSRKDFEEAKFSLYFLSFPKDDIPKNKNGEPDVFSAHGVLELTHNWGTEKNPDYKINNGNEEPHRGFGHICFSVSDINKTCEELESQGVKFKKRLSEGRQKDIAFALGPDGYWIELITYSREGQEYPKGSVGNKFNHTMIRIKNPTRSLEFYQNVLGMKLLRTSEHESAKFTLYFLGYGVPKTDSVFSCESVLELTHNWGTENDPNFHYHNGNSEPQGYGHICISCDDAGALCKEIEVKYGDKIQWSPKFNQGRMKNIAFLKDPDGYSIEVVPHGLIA

glyoxalase I = target: T3, glyoxalase I (Saccharomyces cerevisiae, UniProt P50107); details: concentration of 50% inhibition of glyoxalase I; c = No inhibitory activity was detected; read-out: I50; cited from earlier work
T3 sequence (P50107 1-326): T2 sequence (P50107 1-326)

L1210 leukemia = details: concentration for 50% kill of the cell culture; cited from earlier work
KB cells = details: concentration for 50% kill of the cell culture; cited from earlier work
yeast Glx I [4] = target: T2, yeast Glx I; details: Hamilton et al. 1992; cited from earlier work
[5] = of substituent R; cited from earlier work
Melanoma (UACC-62) = assay: NCI tumor cell growth inhibition, melanoma UACC-62
Excerpt: (§1) ^a Concentration for 50% cell growth inhibition versus nodrug
(§2) ^b Concentration for total cell growth inhibition versus nodrug

Renal Cancer (ACHN) = assay: NCI tumor cell growth inhibition, renal cancer ACHN
Excerpt: as §1, §2

CNS Cancer (SNB-75) = assay: NCI tumor cell growth inhibition, CNS cancer SNB-75
Excerpt: as §1, §2

Colon Cancer (KMZOLZ) = assay: NCI tumor cell growth inhibition, colon cancer KMZOLZ
Excerpt: as §1, §2

Ovarian Cancer (SK-OV-3) = assay: NCI tumor cell growth inhibition, ovarian cancer SK-OV-3
Excerpt: as §1, §2

[6] = target: bovine liver glyoxalase II (Bos taurus, UniProt Q3B7M2); assay: Substrate and inhibition studies with bovine liver glyoxalase II
Protocol: (§3) The standard errors for Vm and Km were obtained by analysis of the initial rate data using the HYPER program of Cleland.
(§4) ^a HEPES buffer (100 mM, pH 7.4), 25° C.
(§5) ^b Listed values are relative to Vm for SD-lactoylglutathione.
(§6) ^c Inhibition constants obtained from using the enediol analogs as

[7] = test system: Non-Small Cell Lung Cancer (HOP-18); assay: NCI tumor cell growth inhibition, non-small cell lung cancer HOP-18
Excerpt: as §1, §2

[8] = test system: CN(O)C(=O)SC[C@H](NC(=O)CC[C@H](N)C(=O)O)C(=O)NCC(=O)O; assay: purified protein, by the assay type; details: other: as substrate, HEPES buffer (100 mM, pH 7.4), 25° C.
Protocol: as §3, §4, §5, §6

[9] = Homo sapiens, 48 h, read-out: GI (concentration for 50% cell growth inhibition)
[10] = Homo sapiens, SK-OV-3, read-out: inhibition of cell growth

CCOC(=O)CNC(=O)[C@H](CSC(=O)N(O)c1ccccc1)NC(=O)CC[C@H](N)C(=O)OCC [6a(Et)2]
Ki (human erythrocyte Glx I; Table 7, read-out: Ki (competitive inhibition constants with human erythrocyte glyoxalase I)): > 1000 µM | cell killing ([1]; HL60, 250 to 300 μM): about 100% | LC50 (concentration for 50% cell kill) ([1]; HL60, 72 hr. incubation): 200 µM | TGI (concentration for total cell growth inhibition) ([1]; HL60, 72 hr. incubation): 126 µM | IC50 ([1]; HL60, 72 hr. incubation, read-out: GI (concentration for 50% cell growth inhibition)): 63 µM | toxicity versus corresponding unethylated species ([1]; HL60 cells, RPMI/fetal calf serum medium, 37° C.): more toxic | inhibition of cell growth ([2]; VA-2 fibroblasts, 250 to 300 μM): 50-80%

CN(O)C(=O)SC[C@H](NC(=O)CC[C@H](N)C(=O)O)C(=O)NCC(=O)O [Compound 2, S-(N-Hydroxy N-Methyl Carbamoyl) Glutathione]
binding energy difference versus deoxy analog 2(a) (yeast Glx I [3]): about 2.6 Kcal/mole | binds more tightly to active site of Glx I than deoxy analog 2(a) (yeast Glx I [3]): 80 fold | binds more tightly to yeast Glx I than S-D-lactoylglutathione (yeast Glx I [3]): over 30 fold | Ki (yeast Glx I [3]; read-out: Ki yeast Glx I): 0.068 mM | Ki (human erythrocyte Glx I; Phosphate buffer (50 mM, pH 7), 25° C., read-out: Ki Erythrocytes): 1.95 ± 0.21 µM | IC50 (glyoxalase I): 9 µM | LD50 (L1210) (L1210 leukemia): > 0.20 mM | LD50 (KB) (KB cells): 0.11 mM | higher affinity of the enzyme versus glycyl-ethyl ester 2(Et) (yeast Glx I [4]): 10 fold | π (Hansch hydrophobicity constant) [5]: 0.5 | IC50 (Melanoma (UACC-62); Homo sapiens, UACC-62, 48 h, read-out: GI (concentration for 50% cell growth inhibition)): > 1 mM | inhibition at 1000 µM (Melanoma (UACC-62); Homo sapiens, UACC-62, read-out: inhibition of cell growth): 30% | effect on cell growth (Melanoma (UACC-62); UACC-62, 10^-4 or lower): ineffective | LC50 (concentration for 50% cell kill) (Melanoma (UACC-62); UACC-62, 48 hrs. incubation): > 1000 µM | TGI (concentration for total cell growth inhibition) (Melanoma (UACC-62); UACC-62, 48 hrs. incubation): > 1000 µM | LC50 (concentration for 50% cell kill) (Renal Cancer (ACHN); 48 hrs. incubation): > 1000 µM | TGI (concentration for total cell growth inhibition) (Renal Cancer (ACHN); 48 hrs. incubation): > 1000 µM | IC50 (Renal Cancer (ACHN); [9]): > 1 mM | inhibition at 1000 µM (Renal Cancer (ACHN); Homo sapiens, read-out: inhibition of cell growth): ~40% | effect on cell growth (Renal Cancer (ACHN); concentrations lower than 10^-3 M): no significant effect | inhibition of cell growth (CNS Cancer (SNB-75); CNS human cancer cells, 10^-4 M or lower): less than 10% | IC50 (CNS Cancer (SNB-75); Homo sapiens, SNB-75, 48 h, read-out: GI (concentration for 50% cell growth inhibition)): 630 µM | inhibition at 1000 µM (CNS Cancer (SNB-75); Homo sapiens, SNB-75, read-out: inhibition of cell growth): 60% | LC50 (concentration for 50% cell kill) (CNS Cancer (SNB-75); SNB-75, 48 hrs. incubation): > 1000 µM | TGI (concentration for total cell growth inhibition) (CNS Cancer (SNB-75); SNB-75, 48 hrs. incubation): > 1000 µM | IC50 (Colon Cancer (KMZOLZ); [9]): > 1 mM | inhibition of cell growth (Colon Cancer (KMZOLZ); KMZOL2, "At this concentration" (printed after 10^-4 and below)): < 30% | effect on cell growth (Colon Cancer (KMZOLZ); KMZOL2, concentrations of 10^-4 and below): no significant effect | LC50 (concentration for 50% cell kill) (Colon Cancer (KMZOLZ); KMZOLZ, 48 hrs. incubation): > 1000 µM | TGI (concentration for total cell growth inhibition) (Colon Cancer (KMZOLZ); KMZOLZ, 48 hrs. incubation): > 1000 µM | IC50 (Ovarian Cancer (SK-OV-3); Homo sapiens, SK-OV-3, 48 h, read-out: GI (concentration for 50% cell growth inhibition)): 316 µM | inhibition at 100 µM (Ovarian Cancer (SK-OV-3); [10]): 20% | inhibition at 1000 µM (Ovarian Cancer (SK-OV-3); [10]): > 90% | LC50 (concentration for 50% cell kill) (Ovarian Cancer (SK-OV-3); SK-OV-3, 48 hrs. incubation): > 1000 µM | TGI (concentration for total cell growth inhibition) (Ovarian Cancer (SK-OV-3); SK-OV-3, 48 hrs. incubation): ~ 1000 μM | Ki [6]: 426 ± 77 µM | Vm (rel.) ([6]; relative to Vm for S-D-lactoylglutathione, HEPES buffer (100 mM, pH 7.4), 25° C.): (1.7 ± 0.1) × 10^-5 | LC50 (concentration for 50% cell kill) ([7]; HOP-18, 48 hrs. incubation): > 1000 µM | TGI (concentration for total cell growth inhibition) ([7]; HOP-18, 48 hrs. incubation): > 1000 µM | IC50 ([7]; Homo sapiens, HOP-18, 48 h, read-out: GI (concentration for 50% cell growth inhibition)): 630 µM | inhibition at 1000 µM ([7]; Homo sapiens, HOP-18, read-out: cell growth inhibition): > 65%

C[C@@H](O)C(=O)SC[C@H](NC(=O)CC[C@H](N)C(=O)O)C(=O)NCC(=O)O [S-D-lactoylglutathione, reference compound]
Ki (yeast Glx I [3]): 2.23 mM | IC50 (glyoxalase I): 77 µM | LD50 (L1210) (L1210 leukemia): 0.08 mM | LD50 (KB) (KB cells): 0.07 mM

N[C@@H](CCC(=O)N[C@@H](CSCc1ccc(Br)cc1)C(=O)NCC(=O)O)C(=O)O [S-p-Bromobenzyl glutathione, reference compound]
LC50 ([1]; HL60 cells, text b533): 50 µM | LC50 ([2]; fibroblasts, text b533): 50 µM

bovine liver glyoxalase II (Bos taurus)
Km [8]: 478 µM
